According to US8575197B2, “Pyrolinone derivative and pharmaceutical composition comprising the same” (Shionogi & Co., Ltd., priority 2008, dated 2013):

Each compound was assayed against human P2X3 receptor (Homo sapiens (Human), UniProt P56373) (assay: P2X3 receptor inhibition, ATP-evoked Fluo-3 calcium fluorescence (FDSS 3000)). Details: C6BU-1 cell transfected with human P2X3 receptor gene; ATP-evoked Fluo-3 fluorescence.
Type: cell-based
Summary of the method: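 C6BU-1 cells stably transfected with human P2X3, loaded with 4 μM Fluo-3-AM for 1 h at 37 °C in HEPES buffer pH 7.5 with probenecid. Compound added 5 min before 40 nM ATP solution; fluorescence followed 3 min. IC50 from ratio of peak post-ATP to baseline fluorescence.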

human P2X3 receptor, sequence (P56373 whole entry): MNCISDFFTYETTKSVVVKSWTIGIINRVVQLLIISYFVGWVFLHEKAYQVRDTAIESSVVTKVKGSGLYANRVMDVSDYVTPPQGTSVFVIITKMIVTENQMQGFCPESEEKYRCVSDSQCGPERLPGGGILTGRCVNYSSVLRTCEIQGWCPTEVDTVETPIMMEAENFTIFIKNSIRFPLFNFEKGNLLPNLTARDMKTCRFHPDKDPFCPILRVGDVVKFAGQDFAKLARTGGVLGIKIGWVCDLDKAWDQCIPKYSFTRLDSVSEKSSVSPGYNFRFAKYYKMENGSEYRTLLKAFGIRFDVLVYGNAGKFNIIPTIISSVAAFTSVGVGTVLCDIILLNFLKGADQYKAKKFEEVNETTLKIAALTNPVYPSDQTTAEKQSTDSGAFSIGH

Row | Compound | IC50 [nM]
1 | COCOc1ccccc1C1C(C(=O)C(C)C)=C(O)C(=O)N1c1ccc(-c2ccsc2)cc1 (stereo not drawn) [Compound I-213] | 6
2 | COCc1ccccc1C1C(C(=O)C(C)C)=C(O)C(=O)N1c1ccc(I)cc1 (stereo not drawn) [Compound I-281] | 637
3 | CNC(=O)CCc1ccccc1C1C(C(=O)C(C)C)=C(O)C(=O)N1c1ccc(-c2noc(C)n2)cc1 (stereo not drawn) [Compound I-593] | 811
4 | COCCN(C)C(=O)c1ccccc1C1C(C(=O)CC(C)C)=C(O)C(=O)N1c1ccc(-c2csc(C)c2)cc1 (stereo not drawn) [Compound I-497] | 36
5 | Cc1ccc(-c2ccc(N3C(=O)C(O)=C(C(=O)C(C)C)C3c3ccccc3CCC(=O)NC(C)C)cc2)o1 (stereo not drawn) [Compound I-538] | 119
6 | COc1ccccc1C1c2c(C(C)C)n[nH]c2C(=O)N1c1ccc(-c2ccsc2)cc1 (stereo not drawn) [II-079] | 11
7 | COCCN(C)C(=O)c1ccccc1C1C(C(=O)C(C)C)=C(O)C(=O)N1c1ccc(-c2csc(C)c2)cc1 (stereo not drawn) [Compound I-547] | 217
8 | CC(C)COc1ccccc1C1C(C(=O)C(C)C)=C(O)C(=O)N1c1ccc(-c2ccsc2)cc1 (stereo not drawn) [Compound I-449] | 13
9 | COCCOc1ncccc1C1C(C(=O)C(C)C)=C(O)C(=O)N1c1ccc(-c2csc(C)c2)cc1 (stereo not drawn) [Compound I-268] | 32
10 | COCCCOc1ccccc1C1C(C(=O)CC(C)C)=C(O)C(=O)N1c1ccc(-c2ccsc2)cc1 (stereo not drawn) [Compound I-490] | 17
11 | Cc1ccc(-c2ccc(N3C(=O)C(O)=C(C(=O)CC(C)C)C3c3ccccc3C(=O)N(C)C)cc2)o1 (stereo not drawn) [Compound I-399] | 44
12 | CC(C)(C)c1n[nH]c2c1C(c1cccc[n+]1[O-])N(c1ccc(-c3ccon3)cc1)C2=O (stereo not drawn) [II-058] | 494
13 | CC(C)C(=O)C1=C(O)C(=O)N(c2ccc(-c3ccsc3)cc2)C1c1cccnc1OCCCO (stereo not drawn) [Compound I-564] | 18
14 | COc1ccccc1C1c2c(C(C)C)n[nH]c2C(=O)N1c1ccc(-c2ccsc2)c(C)c1 (stereo not drawn) [II-239] | 205
15 | COc1ccc(C(=O)C2=C(O)C(=O)N(c3ccc(-c4noc(C)n4)cc3)C2c2ccccc2OC)cc1 (stereo not drawn) [Compound I-030] | 53
16 | Cc1nc(-c2ccc(N3C(=O)C(O)=C(C(=O)C(C)C)C3c3ccccc3OCC(C)C)cc2)no1 (stereo not drawn) [Compound I-451] | 19
17 | CC(=O)NCCOc1ccccc1C1c2c(C(C)C)n[nH]c2C(=O)N1c1ccc(-c2ccsc2)cc1 (stereo not drawn) [II-176] | 10
18 | CCN(C)C(=O)c1ccccc1C1C(C(=O)C(C)C)=C(O)C(=O)N1c1ccc(-c2csc(C)c2)cc1 (stereo not drawn) [Compound I-494] | 53
19 | Cc1ccc(-c2ccc(N3C(=O)C(O)=C(C(=O)C(C)C)C3c3cccnc3OCCCO)cc2)o1 (stereo not drawn) [Compound I-478] | 34
20 | COCCOc1cc(F)ccc1C1C(C(=O)CC(C)C)=C(O)C(=O)N1c1ccc(-c2ccoc2)cc1 (stereo not drawn) [Compound I-368] | 16
21 | COc1ccccc1C1C(C(=O)C(C)(C)C)=C(O)C(=O)N1c1ccc(-c2ccoc2)nc1 (stereo not drawn) [Compound I-093] | 756
22 | Cc1cc(-c2ccc(N3C(=O)C(O)=C(C(=O)C(C)C)C3c3ccccc3C(=O)N(C)C)cc2)cs1 (stereo not drawn) [Compound I-409] | 177
23 | COCCOc1ccccc1[C@@H]1C(C(=O)C(C)C)=C(O)C(=O)N1c1ccc(-c2ccc(C)s2)cc1 [Compound I-465] | 7
24 | COCOc1ccccc1C1C(C(=O)C(C)C)=C(O)C(=O)N1c1ccc(-c2ccco2)cc1 (stereo not drawn) [Compound I-230] | 18

Row | Compound | IC50 [nM]
25 | COCCOc1ncccc1C1C(C(=O)C2CCCC2)=C(O)C(=O)N1c1ccc(-c2ccon2)cc1 (stereo not drawn) [Compound I-521] | 554
26 | COCCOc1ccccc1C1C(C(=O)C(C)(C)C)=C(O)C(=O)N1c1ccc(SC)cc1 (stereo not drawn) [Compound I-130] | 476
27 | COCCOc1ncccc1C1C(C(=O)CC(C)C)=C(O)C(=O)N1c1ccc(-c2ccsc2)cc1 (stereo not drawn) [Compound I-248] | 30
28 | COCc1ccccc1C1C(C(=O)C(C)C)=C(O)C(=O)N1c1ccc2c(c1)cc(C)n2C (stereo not drawn) [Compound I-353] | 210
29 | COCc1ncccc1C1C(C(=O)C(C)C)=C(O)C(=O)N1c1ccc(-c2ccsc2)cc1 (stereo not drawn) [Compound I-194] | 63
30 | COCCOc1ncccc1C1c2c(C(C)C)n[nH]c2C(=O)N1c1ccc(-c2ccsc2)cc1 (stereo not drawn) [II-278] | 13
31 | COc1cc(F)ccc1C1C(C(=O)C(C)(C)C)=C(O)C(=O)N1c1ccc(-c2ccon2)cc1 (stereo not drawn) [Compound I-011] | 270
32 | CCCc1ccc(N2C(=O)C(O)=C(C(=O)C(C)(C)C)C2c2ccccc2OC)cc1 (stereo not drawn) [Compound I-044] | 468
33 | CC(C)(C)C(=O)C1=C(O)C(=O)N(c2ccc(-c3ccsc3)cc2)C1c1ccccc1C(=O)O (stereo not drawn) [Compound I-184] | 163
34 | CC(C)C(=O)C1=C(O)C(=O)N(c2ccc(-c3ccon3)cc2)C1c1ccccc1OCC1CC1 (stereo not drawn) [Compound I-588] | 29
35 | COCc1ccccc1C1C(C(=O)C(C)C)=C(O)C(=O)N1c1ccc(-c2ccc(C)s2)cc1 (stereo not drawn) [Compound I-266] | 25
36 | COc1ncccc1C1c2c(C(C)(C)C)n[nH]c2C(=O)N1c1ccc(-c2ccsc2)cn1 (stereo not drawn) [II-262] | 39
37 | COCCOc1ncccc1C1C(C(=O)C(C)C)=C(O)C(=O)N1c1ccc(-c2noc(C)n2)cc1 (stereo not drawn) [Compound I-174] | 572
38 | COCCOc1cc(F)ccc1C1C(C(=O)CC(C)C)=C(O)C(=O)N1c1ccc(-c2ccsc2)cc1 (stereo not drawn) [Compound I-364] | 9
39 | CCOc1ncccc1C1C(C(=O)C(C)C)=C(O)C(=O)N1c1ccc(-c2ccsc2)cc1 (stereo not drawn) [Compound I-441] | 13
40 | COCCOc1ccccc1C1C(C(=O)CC(C)C)=C(O)C(=O)N1c1ccc(-c2ccon2)cc1 (stereo not drawn) [Compound I-309] | 182
41 | COc1ccccc1C1C(C(=O)c2ccco2)=C(O)C(=O)N1c1ccc(-c2ccsc2)cc1 (stereo not drawn) [Compound I-211] | 157
42 | CC(C)(C)C(=O)C1=C(O)C(=O)N(c2ccc(-c3ccon3)cc2)C1c1cccc2c1OCO2 (stereo not drawn) [Compound I-055] | 596
43 | COc1ccccc1[C@@H]1C(C(=O)CC(C)C)=C(O)C(=O)N1c1ccc(-c2ccsc2)cc1 [Compound I-279] | 16
44 | COc1ccccc1C1c2c(C(C)(C)C)n[nH]c2C(=O)N1c1ccc(OC(C)C)cc1 (stereo not drawn) [II-002] | 217
45 | CC(C)(C)C(=O)C1=C(O)C(=O)N(c2ccc(-c3nccs3)cc2)C1c1ccccc1OCCO (stereo not drawn) [Compound I-082] | 650
46 | COc1ccccc1C1C(C(=O)C(C)C)=C(O)C(=O)N1c1ccc2sccc2c1 (stereo not drawn) [Compound I-269] | 347
47 | COc1ccc(C(=O)C2=C(O)C(=O)N(c3ccc4[nH]ccc4c3)C2C2CCCCC2)cc1 (stereo not drawn) [Compound I-012] | 340
48 | COC(=O)Nc1ccccc1C1c2c(C(C)C)n[nH]c2C(=O)N1c1ccc(-c2ccsc2)cc1 (stereo not drawn) [II-095] | 12

Row | Compound | IC50 [nM]
49 | COc1ncccc1C1c2c(C(C)(C)C)n[nH]c2C(=O)N1c1ccc(-c2cccs2)nc1 (stereo not drawn) [II-270] | 25
50 | COc1ccccc1C1C(C(=O)C(C)C)=C(O)C(=O)N1c1ccc(-c2ccsc2)c(O)c1 (stereo not drawn) [Compound I-240] | 185
51 | CC(C)C(=O)C1=C(O)C(=O)N(c2ccc(-c3cccs3)cc2)C1c1cccnc1OCCO (stereo not drawn) [Compound I-229] | 29
52 | COCCOc1ccccc1C1c2c(C(C)(C)CO)n[nH]c2C(=O)N1c1ccc(-c2ccon2)cc1 (stereo not drawn) [II-132] | 141
53 | COCc1ccccc1[C@@H]1C(C(=O)C(C)C)=C(O)C(=O)N1c1ccc(-c2cccs2)cc1 [Compound I-394] | 11
54 | Cc1nc(-c2ccc(N3C(=O)C(O)=C(C(=O)C(C)C)C3c3ccccc3CCC(N)=O)cc2)no1 (stereo not drawn) [Compound I-592] | 827
55 | CNC(=C(C)C)C1=C(O)C(=O)N(c2ccc(-c3ccsc3)cc2)C1c1cccnc1O (stereo not drawn) [Compound I-253] | 193
56 | Cc1cc(-c2ccc(N3C(=O)C(O)=C(C(=O)CC(C)C)C3c3ccccc3OC(C)C)cc2)on1 (stereo not drawn) [Compound I-370] | 194
57 | COc1ccccc1C1C(C(=O)C(C)C)=C(O)C(=O)N1c1ccc(-c2cscn2)cc1 (stereo not drawn) [Compound I-416] | 322
58 | COc1ccccc1C1C(C(=O)C(C)(C)C)=C(O)C(=O)N1c1ccc(C(C)C)cc1 (stereo not drawn) [Compound I-037] | 954
59 | COc1ncccc1C1C(C(=O)C(C)(C)C)=C(O)C(=O)N1c1ccc(-c2cccs2)nc1 (stereo not drawn) [Compound I-122] | 342
60 | Cc1ncccc1C1C(C(=O)C(C)(C)C)=C(O)C(=O)N1c1ccc(-c2ccsc2)cc1 (stereo not drawn) [Compound I-143] | 331
61 | CC(C)C(=O)C1=C(O)C(=O)N(c2ccc(-c3ccoc3)cc2)C1c1ccccc1OCCO (stereo not drawn) [Compound I-190] | 40
62 | COc1ccccc1C1C(C(=O)C(C)C)=C(O)C(=O)N1c1ccc(-c2ccc(C)s2)cc1 (stereo not drawn) [Compound I-259] | 30
63 | COc1ccccc1C1c2c(C(C)(C)C(=O)N(C)C)n[nH]c2C(=O)N1c1ccc(-c2ccsc2)cc1 (stereo not drawn) [II-172] | 11
64 | COc1ccccc1C1c2c(C(=O)N(C)C)n[nH]c2C(=O)N1c1ccc(-c2ccsc2)cc1 (stereo not drawn) [II-180] | 262
65 | COc1ccccc1C1C(C(=O)C(C)C)=C(O)C(=O)N1c1ccc(SC)cc1 (stereo not drawn) [Compound I-473] | 182
66 | COCc1ccccc1C1C(C(=O)CC(C)C)=C(O)C(=O)N1c1ccc(-c2ccco2)cc1 (stereo not drawn) [Compound I-355] | 44
67 | CN(C)CCOc1ccccc1C1C(C(=O)C(C)(C)C)=C(O)C(=O)N1c1ccc(-c2ccon2)cc1 (stereo not drawn) [Compound I-137] | 615
68 | COCCCOc1ncccc1C1C(C(=O)C(C)C)=C(O)C(=O)N1c1ccc(-c2ccoc2)cc1 (stereo not drawn) [Compound I-567] | 57
69 | COC(=O)COc1ccccc1C1c2c(C(C)(C)C)n[nH]c2C(=O)N1c1ccc(-c2ccon2)cc1 (stereo not drawn) [II-028] | 14
70 | COc1ncccc1C1C(C(=O)C(C)(C)C)=C(O)C(=O)N1c1ccc(-c2ccsc2)cc1 (stereo not drawn) [Compound I-116] | 77
71 | COCCOc1ccccc1C1C(C(=O)CC(C)C)=C(O)C(=O)N1c1ccc(C2=NCCS2)cc1 (stereo not drawn) [Compound I-410] | 151
72 | CC(C)(C)c1n[nH]c2c1C(c1ccccc1OCCO)N(c1ccc(-c3cccs3)cc1)C2=O (stereo not drawn) [II-012] | 4
